Measurements from US20110166121A1 (LG LIFE SCIENCES LTD., priority 2008, published 2011).
pIC50, pKi: −log10 of the molar value.

How the values were obtained:
[1] = test system: Human platelet aggregation caused by ADP; assay: Inhibition of ADP-induced platelet aggregation (Mimic-human PRP); type: cell-based; settings: 20 μM ADP, human platelet concentrate diluted with PPP, absorption at 595 nm
Procedure, shortened: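 Ki came from non-linear sigmoidal fits of inhibition, measured as the 3-min rise in absorbance at 595 nm after 20 μM ADP, relative to 0/20 μM ADP controls. Platelets (3–4×10^8/mL in PPP-diluted human PRP) were exposed to 0.01–30 μM compound for 20 min at room temperature beforehand.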

Human P2Y12 receptor = target: T1, Human P2Y12 receptor (Homo sapiens, UniProt Q9H244); assay: Human P2Y12 receptor cell membrane binding assay with [3H] 2-Mes-ADP; settings: 1 nM [3H] 2-Mes-ADP, membranes of HEK cells expressing P2Y12 receptor; read-out: Binding activity (IC50)
T1 construct: expressed in transfected cells; host or cells: HEK cells
T1 sequence (Q9H244 whole entry): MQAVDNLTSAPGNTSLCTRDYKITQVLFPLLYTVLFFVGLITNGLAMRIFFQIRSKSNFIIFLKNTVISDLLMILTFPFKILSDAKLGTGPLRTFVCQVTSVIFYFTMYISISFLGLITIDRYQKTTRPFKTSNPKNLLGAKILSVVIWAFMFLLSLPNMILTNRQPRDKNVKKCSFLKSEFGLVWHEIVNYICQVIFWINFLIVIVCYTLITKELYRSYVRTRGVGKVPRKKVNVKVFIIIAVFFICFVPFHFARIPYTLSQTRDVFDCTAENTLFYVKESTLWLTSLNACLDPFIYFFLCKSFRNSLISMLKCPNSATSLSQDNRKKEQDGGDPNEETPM
Procedure, shortened: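 Competition binding used 1 nM [3H]2-MeS-ADP on P2Y12-expressing HEK cell membranes for 1 h at room temperature, followed by filtration and scintillation counting.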

| SMILES | pKi [1] | pIC50 (Human P2Y12 receptor) |
| --- | --- | --- |
| CCCc1cc2c(N3CCn4c(nnc4C(F)(F)F)C3)nc(Oc3ccc(C=O)cc3)nc2s1 [Example 3-47, 4-[6-Propyl-4-(3-trifluoromethyl-5,6-dihydro-8H-[1,2,4]triazolo[4,3-a]pyrazin-7-yl)-thieno[2,3-d]pyrimidin-2-yloxy]-benzaldehyde] | < 5.40 | 6.43 |
| CCCc1cc2c(N3CCn4c(nnc4C(F)(F)F)C3)nc(Oc3ccc(CO)cc3)nc2s1 [Example 3-48, {4-[6-Propyl-4-(3-trifluoromethyl-5,6-dihydro-8H-[1,2,4]triazolo[4,3-a]pyrazin-7-yl)-thieno[2,3-d]pyrimidin-2-yloxy]-phenyl}-methanol] | < 5.40 | 6.47 |
| CCc1cc2c(N3CCn4c(nnc4C(F)(F)F)C3)nc(OCCO)nc2s1 [Example 3-50, 2-[6-Ethyl-4-(3-trifluoromethyl-5,6-dihydro-8H-[1,2,4]triazolo[4,3-a]pyrazin-7-yl)-thieno[2,3-d]pyrimidin-2-yloxy]-ethanol] | 6.85 | 6.22 |
| CCCc1cc2c(N3CCn4c(nnc4C(F)(F)F)C3)nc(SCc3ccccc3)nc2s1 [Example 3-51, 7-(2-Benzylsulfanyl-6-propyl-thieno[2,3-d]pyrimidin-4-yl)-3-trifluoromethyl-5,6,7,8-tetrahydro-[1,2,4]triazolo[4,3-a]pyrazine] | 5.93 | 6.15 |
| CCCc1cc2c(N3CCn4c(nnc4C(F)(F)F)C3)nc(Sc3ncccn3)nc2s1 [Example 3-53, 7-[6-Propyl-2-(pyrimidin-2-ylsulfanyl)-thieno[2,3-d]pyrimidin-4-yl]-3-trifluoromethyl-5,6,7,8-tetrahydro-[1,2,4]triazolo[4,3-a]pyrazine] | 6.12 | 6.24 |
| CCCc1cc2c(N3CCn4c(nnc4C(F)(F)F)C3)nc(OCCNCC(=O)O)nc2s1 [Example 3-55, {2-[6-Propyl-4-(3-trifluoromethyl-5,6-dihydro-8H-[1,2,4]triazolo[4,3-a]pyrazin-7-yl)-thieno[2,3-d]pyrimidin-2-yloxy]-ethylamino}-acetic acid] | 7.60 | 6.82 |
| CCCc1cc2c(N3CCn4c(nnc4C(F)(F)F)C3)nc(OCCN)nc2s1 [Example 3-58, 2-[6-Propyl-4-(3-trifluoromethyl-5,6-dihydro-8H-[1,2,4]triazolo[4,3-a]pyrazin-7-yl)-thieno[2,3-d]pyrimidin-2-yloxy]-ethylamine] | 7.68 | 6.40 |
| CCCc1cc2c(N3CCn4c(nnc4C(F)(F)F)C3)nc(OCCNC(=O)COC)nc2s1 [Example 3-63, 2-Methoxy-N-{2-[6-propyl-4-(3-trifluoromethyl-5,6-dihydro-8H-[1,2,4]triazolo[4,3-a]pyrazin-7-yl)-thieno[2,3-d]pyrimidin-2-yloxy]-ethyl}-acetamide] | 8.15 | 7.37 |
| CCCc1cc2c(N3CCn4c(nnc4C(F)(F)F)C3)nc(OCCNS(C)(=O)=O)nc2s1 [Example 3-64, N-{2-[6-Propyl-4-(3-trifluoromethyl-5,6-dihydro-8H-[1,2,4]triazolo[4,3-a]pyrazin-7-yl)-thieno[2,3-d]pyrimidin-2-yloxy]-ethyl}-methanesulfonamide] | 6.82 | 6.96 |
| CCCc1cc2c(N3CCn4c(nnc4C(F)(F)F)C3)nc(OCCNC(=O)CN)nc2s1 [Example 3-65, 2-Amino-N-{2-[6-propyl-4-(3-trifluoromethyl-5,6-dihydro-8H-[1,2,4]triazolo[4,3-a]pyrazin-7-yl)-thieno[2,3-d]pyrimidin-2-yloxy]-ethyl}-acetamide] | 7.89 | 6.74 |
| CCCc1cc2c(N3CCn4c(nnc4C(F)(F)F)C3)nc(OCCNC(=O)CS(C)(=O)=O)nc2s1 [Example 3-66, 2-Methanesulfonyl-N-{2-[6-propyl-4-(3-trifluoromethyl-5,6-dihydro-8H-[1,2,4]triazolo[4,3-a]pyrazin-7-yl)-thieno[2,3-d]pyrimidin-2-yloxy]-ethyl}-acetamide] | 7.15 | 6.82 |
| CCCc1cc2c(N3CCn4c(nnc4C(F)(F)F)C3)nc(OCCNC(=O)CCCS(N)(=O)=O)nc2s1 [Example 3-67, N-{2-[6-Propyl-4-(3-trifluoromethyl-5,6-dihydro-8H-[1,2,4]triazolo[4,3-a]pyrazin-7-yl)-thieno[2,3-d]pyrimidin-2-yloxy]-ethyl}-4-sulfamoyl-butyramide] | 7.77 | 7.05 |
| CCCc1cc2c(N3CCn4c(nnc4C(F)(F)F)C3)nc(OCCNS(=O)(=O)C3CC3)nc2s1 [Example 3-68, Cyclopropanesulfonic Acid {2-[6-propyl-4-(3-trifluoromethyl-5,6-dihydro-8H-[1,2,4]triazolo[4,3-a]pyrazin-7-yl)-thieno[2,3-d]pyrimidin-2-yloxy]-ethyl}-amide] | 6.92 | 6.85 |
| CCCc1cc2c(N3CCn4c(nnc4C(F)(F)F)C3)nc(OCCNS(=O)(=O)C(F)(F)F)nc2s1 [Example 3-69, C,C,C-Trifluoro-N-{2-[6-propyl-4-(3-trifluoromethyl-5,6-dihydro-8H-[1,2,4]triazolo[4,3-a]pyrazin-7-yl)-thieno[2,3-d]pyrimidin-2-yloxy]-ethyl}-methanesulfonamide] | 5.39 | 6.74 |
| CCCc1cc2c(N3CCn4c(nnc4C(F)(F)F)C3)nc(OCCNC(=O)c3ccccn3)nc2s1 [Example 3-70, Pyridine-2-carboxylic acid {2-[6-propyl-4-(3-trifluoromethyl-5,6-dihydro-8H-[1,2,4]triazolo[4,3-a]pyrazin-7-yl)-thieno[2,3-d]pyrimidin-2-yloxy]-ethyl}-amide] | 8.15 | 7.77 |
| CCCc1cc2c(N3CCn4c(nnc4C(F)(F)F)C3)nc(C(N)=O)nc2s1 [Example 4-3, 6-Propyl-4-(3-trifluoromethyl-5,6-dihydro-8H-[1,2,4]triazolo[4,3-a]pyrazin-7-yl)-thieno[2,3-d]pyrimidine-2-carboxylic acid amide] | 6.92 | 6.20 |
| CCCc1cc2c(N3CCn4c(nnc4C(F)(F)F)C3)nc(C(=O)NCCC(=O)OCC)nc2s1 [Example 4-6, 3-{[6-Propyl-4-(3-trifluoromethyl-5,6-dihydro-8H-[1,2,4]triazolo[4,3-a]pyrazin-7-yl)thieno[2,3-d]pyrimidine-2-carbonyl]amino}propionic acid ethyl ester] | 5.92 | 5.54 |
| CCCc1cc2c(N3CCn4c(nnc4C(F)(F)F)C3)nc(C(=O)NCCC(=O)O)nc2s1 [Example 4-7, 3-{[6-Propyl-4-(3-trifluoromethyl-5,6-dihydro-8H-[1,2,4]triazolo[4,3-a]pyrazin-7-yl)thieno[2,3-d]pyrimidine-2-carbonyl]amino}propionic acid] | 6.49 | 6.21 |
| CCCc1cc2c(N3CCn4c(nnc4C(F)(F)F)C3)nc(C(=O)NCC(=O)OCC)nc2s1 [Example 4-8, {[6-Propyl-4-(3-trifluoromethyl-5,6-dihydro-8H-[1,2,4]triazolo[4,3-a]pyrazin-7-yl)thieno[2,3-d]pyrimidine-2-carbonyl]amino}acetic acid ethyl ester] | 6.26 | 6.33 |
| CCCc1cc2c(N3CCn4c(nnc4C(F)(F)F)C3)nc(C(=O)NCC(=O)O)nc2s1 [Example 4-9, {[6-Propyl-4-(3-trifluoromethyl-5,6-dihydro-8H-[1,2,4]triazolo[4,3-a]pyrazin-7-yl)thieno[2,3-d]pyrimidine-2-carbonyl]amino}acetic acid] | 5.29 | 5.96 |
| CCCc1cc2c(N3CCn4c(nnc4C(F)(F)F)C3)nc(C(=O)NCC(O)CO)nc2s1 (stereo not shown) [Example 4-10, 6-Propyl-4-(3-trifluoromethyl-5,6-dihydro-8H-[1,2,4]triazolo[4,3-a]pyrazin-7-yl)thieno[2,3-d]pyrimidine-2-carboxylic acid (2,3-dihydroxy-propyl)amide] | 6.70 | 5.81 |
| CCCc1cc2c(N3CCn4c(nnc4C(F)(F)F)C3)nc(C(=O)NCCC#N)nc2s1 [Example 4-11, 6-Propyl-4-(3-trifluoromethyl-5,6-dihydro-8H-[1,2,4]triazolo[4,3-a]pyrazin-7-yl)thieno[2,3-d]pyrimidine-2-carboxylic acid (2-cyanoethyl)amide] | 6.22 | 6.18 |
| CCCc1cc2c(N3CCn4c(nnc4C(F)(F)F)C3)nc(C(=O)N3CCC(O)C3)nc2s1 (stereo not shown) [Example 4-12, (3-Hydroxy-pyrrolidin-1-yl)-[6-propyl-4-(3-trifluoromethyl-5,6-dihydro-8H-[1,2,4]triazolo[4,3-a]pyrazin-7-yl)thieno[2,3-d]pyrimidin-2-yl]methanon] | 7.02 | 5.96 |
| CCCc1cc2c(N3CCn4c(nnc4C(F)(F)F)C3)nc(C(=O)N3CCN(C)CC3)nc2s1 [Example 4-13, (4-Methyl-piperazin-1-yl)-[6-propyl-4-(3-trifluoromethyl-5,6-dihydro-8H-[1,2,4]triazolo[4,3-a]pyrazin-7-yl)thieno[2,3-d]pyrimidin-2-yl]methanone] | 5.74 | 5.31 |
| CCCc1cc2c(N3CCn4c(nnc4C(F)(F)F)C3)nc(C(=O)N3CCCC(C(=O)OCC)C3)nc2s1 (stereo not shown) [Example 4-14, 1-[6-Propyl-4-(3-trifluoromethyl-5,6-dihydro-8H-[1,2,4]triazolo[4,3-a]pyrazin-7-yl)thieno[2,3-d]pyrimidine-2-carbonyl]piperidine-3-carboxylic acid ethyl ester] | 6.34 | 5.89 |
| CCCc1cc2c(N3CCn4c(nnc4C(F)(F)F)C3)nc(C(=O)N3CCCC(C(=O)O)C3)nc2s1 (stereo not shown) [Example 4-15, 1-[6-Propyl-4-(3-trifluoromethyl-5,6-dihydro-8H-[1,2,4]triazolo[4,3-a]pyrazin-7-yl)thieno[2,3-d]pyrimidine-2-carbonyl]piperidine-3-carboxylic acid] | 6.16 | 6.20 |
